Experimental data: patent publication US20240124520A1, “N-ACYLATED HISTIDINE DIPEPTIDES AS ANTICANCER AGENTS” (THE BOARD OF TRUSTEES OF THE LELAND STANFORD JUNIOR …, priority 2019, published 2024)
Non-standard residues stand in square brackets, D forms with d. Residues, ends and D or L forms follow the SMILES beside them. *: point of attachment. Palmitoyl = CCCCCCCCCCCCCCCC(=O)*

Key:
Type in all cases: cell-based
[1] = tested on: K-562 human chronic myelogenous leukemia cells; test: Cell Titer Blue in vitro cell viability assay, K-562; details: 72 h, K562 (DMEM), in suspension, 3 days at 37° C.
Description: (§1) FIG. 11: Dose Response curve for MBC0179 with K-562 cells. Compound MBC0179 was incubated with K-562 human chronic myelogenous leukemia cells, a non-adherent cell line, at the indicated concentrations for 3 days at 37° C. prior to Cell Titer Blue fluorescence-based cell viability assay. Normalized cell viability data, expressed as a percentage, are averaged from three biological replicates and standard error represented by error bars for each averaged data point (empty squares). The compound concentrations are represented on log scale on the x-axis in μM units. Data were analyzed using free software called DrFit, as described in Nature Scientific Reports, Article number: 14701, (2015). […]
(§2) The Cell Titer Blue reagent (available from Promega, Inc.) is a buffered solution containing resazurin, a compound that is converted to resorufin, a detectable fluorescent product, by metabolically active cells. The fluorescence intensity of resorufin product therefore serves as a proportional measure of the number of viable cells, permitting changes in cell viability within cancer or other cell lines to be monitored in response to the addition of cytotoxic or cytostatic agents. […] Metastases to the lungs may be conveniently quantified by a well-established clonogenic assay. […]

[2] = tested on: A549 human lung cancer cells; test: Cell Titer Blue in vitro cell viability assay, A549; details: 72 h, A549 (DMEM), 3 days at 37° C.
Description: as §1, with “13:” for “11:”, “A549” for “K-562”, “lung cancer cells” for “chronic myelogenous leukemia cells, a non-adherent cell line,”
as §2

[3] = tested on: 4T1 mouse triple-negative breast cancer cells; test: Cell Titer Blue in vitro cell viability assay, 4T1; details: 72 h, 4T1 (RPMI), 3 days at 37° C.
Description: as §1, with “16:” for “11:”, “4T1” for “K-562”, “4T1 mouse triple-negative breast cancer cells” for “K-562 human chronic myelogenous leukemia cells, a non-adherent cell line,”
as §2

[4] = tested on: hTERT-HME1 healthy human breast epithelial cells; test: Cell Titer Blue in vitro cell viability assay, hTERT-HME1; details: 72 h, hTERT-HME1 (MEGM), 3 days at 37° C.
Description: as §1, with “6:” for “11:”, “hTERT-HME1 cells in MEGM Media.” for “K-562 cells.”, “[…] healthy” for “K-562”, “breast epithelial cells in growth factor-rich MEGM media” for “chronic myelogenous leukemia cells, a non-adherent cell line,”
as §2

- IC50 [1]: 6.11 µM
- IC50 [2]: 10.5 µM
- IC50 [3]: 25.5 µM
SMILES: CCCCCCCCCCCCCCCC(=O)N[C@H](Cc1c[nH]cn1)C(=O)N[C@@H](C(=O)OCC)C(C)C [Compound 5, N-[N-(1-oxohexadecyl)-D-histidyl]-D-valine ethyl ester] (Palmitoyl-[dH]-[dV]-OEt)
- IC50 [4]: 270 µM
